# Reference: article PMC3176149, “Application of Celluspots peptide arrays for the analysis of the binding specificity of epigenetic reading domains to modified histone tails” (BMC Biochemistry, 2011)
# “Also recorded” adds a separate entry of the source.
# Tests used:
# [1] = test system: JMJD2A double Tudor domain (residues 856-1047); test: Binding of GST-fused JMJD2A double Tudor domain to modified histone peptides on Celluspots peptide arrays; set-up: species or system human; settings: JMJD2A double Tudor GST fusion 10 nM, room temperature, 2 hours, interaction buffer pH 7.5, ECL, tested at least two times
# Method: (§1) In the present study, the binding specificities of seven known reading domains were analyzed using Celluspots peptide arrays comprising 384 peptides from 8 different regions of the N-terminal histone tails, viz. H3 1-19, 7-26, 16-35 and 26-45, H4 1-19 and 11-30, H2A 1-19 and H2B 1-19. The arrays are commercially available from Active Motif and feature 59 post-translational modifications (most of them identified, some of them hypothetical) in many different combinations (Additional file 1). Binding of the GST fused reading domain proteins to peptide arrays was visualized using an anti-GST antibody, followed by a secondary anti-goat-HRP antibody and ECL detection system. […] In case of weak signals, the experiment was repeated with higher protein concentration. In case of an overexposed image, the protein concentration was reduced. For quality control, each glass slide contains two identical copies of the array. […] The sequences encoding human HP1ß full length (residues 1-185), the Chromo domain of human MPP8 (residues 58-112), the double Tudor domain of human JMJ[…] (residues 856-1047), the tandem Tudor domain of human 53BP1 (residues 1490-1608), the PHD finger of human Rag2 (residues 311-520) and the second Bromo domain of human BRD2 (residues 348-455) were amplified from cDNA derived from HEK293 cells and cloned as GST fusion proteins into the pGEX-6P-2 vector (GE Healthcare).
# [2] = test system: JMJD2A double Tudor domain; settings: ref [14],[17],[18]; cited from earlier work
# Text: (§2) The Tudor domain folds into a ß-sandwich flanked by one α-helix.
# [3] = test system: 53BP1 tandem Tudor domain; settings: ref [14],[15]; cited from earlier work
# Text: as §2
# [4] = test system: Dnmt3a PWWP domain (residues 279-420); test: Binding of GST-fused Dnmt3a PWWP domain to modified histone peptides on Celluspots peptide arrays; set-up: species or system murine; settings: Dnmt3a PWWP GST fusion 50 nM, room temperature, 2 hours, interaction buffer pH 7.5, ECL, tested at least two times
# Method: In the present study, the binding specificities of seven known reading domains were analyzed using Celluspots peptide arrays comprising 384 peptides from 8 different regions of the N-terminal histone tails, viz. H3 1-19, 7-26, 16-35 and 26-45, H4 1-19 and 11-30, H2A 1-19 and H2B 1-19. The arrays are commercially available from Active Motif and feature 59 post-translational modifications (most of them identified, some of them hypothetical) in many different combinations (Additional file 1). Binding of the GST fused reading domain proteins to peptide arrays was visualized using an anti-GST antibody, followed by a secondary anti-goat-HRP antibody and ECL detection system. The domains were selected to represent the different folds of reading domains and show a wide range of specificities. […] Each reading domain was tested at least two times on the peptide arrays to ensure that the results are reliable. […] The binding intensities for each tested reading domain were analyzed with the Array Analyze program, which calculates the average of the binding intensities to corresponding peptide spots in both copies of the array and prepares a graphical output - one scatter plot illustrating the binding intensities observed at corresponding spots in both copies of the array and a bar diagram showing the distribution of deviations of the binding intensities to the corresponding spots. […]
# Dnmt3a PWWP domain = settings: SPOT arrays and follow-up experiments; ref [19]; cited from earlier work
# Method: These binding modules are about 50 amino acids long and contain two binding sites for zinc ions. The PHD finger of Rag2, an essential component of the Rag1/2 V(D)J recombinase, which mediates antigen-receptor gene assembly, interact ... || Another reading domain which was tested on the Celluspots peptide arrays is the PWWP domain of Dnmt3a. […] Since there is only one H3K36me3-modified peptide spot, the effect of enhancing or inhibiting secondary modifications could not be studied in this case. […] Since peptide arrays are screening tools, unexpected or novel results need to be confirmed by equilibrium peptide binding experiments using purified peptides. In our experience, such studies often confirmed results from peptide arrays. For example in the case of the Dnmt3a PWWP domain, binding ...
# [5] = test system: 53BP1 tandem Tudor domain (residues 1490-1608); test: Binding of GST-fused 53BP1 tandem Tudor domain to modified histone peptides on Celluspots peptide arrays; set-up: species or system human; settings: 53BP1 tandem Tudor GST fusion 1 μM, room temperature, 2 hours, interaction buffer pH 7.5, ECL, tested at least two times
# Method: as §1
substance,measurement,setting,value
H4K20me2: H4K20me2 modified histone tail peptide on Celluspots array,binding to modified histone tail peptides (array signal),[1],next best bound modification on the peptide array
same,binding to JMJD2A double Tudor domain (literature),[2],interact preferentially; also recorded: reported to bind
same,interaction with 53BP1 tandem Tudor domain (literature),[3],reported to interact; also recorded: shown to interact
H3K36me3: H3K36me3-modified peptide spot on Celluspots array (only one),binding to modified histone tail peptides (array signal),[4],specifically bound
same,interaction with Dnmt3a PWWP domain (literature),Dnmt3a PWWP domain,"specific interaction; also recorded: could be verified by peptide binding, pull-down of native nucleosomes and functional DNA methylation experiments; also recorded: shown to read H3K36me3"
H3K36me2: H3K36me2 modified histone tail peptide on Celluspots array,binding to modified histone tail peptides (array signal),[4],weaker binding signal in comparison to H3K36me3
H4K20me1: H4K20me1 modified histone tail peptide on Celluspots array,binding to modified histone tail peptides (array signal),[5],not observed on the peptide array
same,interaction with 53BP1 tandem Tudor domain (literature),[3],reported to interact
